From US10101331B2, “Methods of evaluating patients using E-cadherin or vimentin” (AGIOS PHARMACEUTICALS, INC, priority 2012, dated 2018)

Key:
Assay type in all cases: cell-based
MDA-MB-231 cells = assay: 72 hr proliferation assay in lines stably expressing empty vector, GAC or GAC-BR
Experimental: MDA-MB-231 cell lines stably expressing empty vector control (Con), wild-type GAC (GAC), or a BPTES-resistant GAC enzyme (GAC-BR) were treated with indicated concentrations of drugs in a 72 hr proliferation assay. […] Calculated p-values from student t-test, * (3×10^−5), **(7×10^−10), ^#(3×10^−5), ^##(5×10^−7).
Levels of overexpression of the GAC WT and GAC-BR mutant were approximately 1.5-2.0 fold above endogenous GLS1 levels (FIG. 12).

NCI-H1563 = assay: Lung cancer cell line panel screened for sensitivity to BPTES, 72 hr proliferation assay
Source text: (§1) Of these, 44 of the cell lines have been classified as non-small cell lung cancer (NSCLC). […] Four of the top 25 transcriptional/cellular pathways were related to the epithelial-mesenchymal transition (EMT) (ranks 1, 15, 23, 25 of FIG. 2). […] Low E-cadherin/high vimentin are well-defined markers of cells that have a mesenchymal phenotype as characterized for example, in any one of the following references: (Yauch et al., (2005) Cin Cancer Res 11:24; Savagner et al., (2010) Ann Oncol. 21(suppl 7): vii89; Thiery et al., (2002) Nature Reviews Cancer June vol 2:442).

NCI-H1618 = assay: as above
Source text: as §1

NCI-H838 = assay: as above
Source text: as §1

NCI-H748 = assay: as above
Source text: as §1

NCI-H1573 = assay: as above
Source text: as §1

NCI-H661 = assay: as above
Source text: as §1

NCI-H446 = assay: as above
Source text: as §1

NCI-H2405 = assay: as above
Source text: as §1

H2228 = assay: as above
Source text: as §1

NCI-H209 = assay: as above
Source text: as §1

NCI-H1694 = assay: as above
Source text: as §1

NCI-H2107 = assay: as above
Source text: as §1

NCI-H1437 = assay: as above
Source text: as §1

NCI-H1975 = assay: as above
Source text: as §1

NCI-H2122 = assay: as above
Source text: as §1

NCI-H1568 = assay: as above
Source text: as §1

NCI-H1355 = assay: as above
Source text: as §1

NCI-H358 = assay: as above
Source text: as §1

NCI-H520 = assay: as above
Source text: as §1

NCI-H1436 = assay: as above
Source text: as §1

NCI-H2347 = assay: as above
Source text: as §1

NCI-H1623 = assay: as above
Source text: as §1

NCI-H1395 = assay: as above
Source text: as §1

HCC15 = assay: as above
Source text: as §1

DMS-153 = assay: as above; conditions: DMS-153 cell line
Source text: as §1

NCI-H1048 = assay: as above
Source text: as §1

NCI-H1373 = assay: as above
Source text: as §1

NCI-H774 = assay: as above
Source text: as §1

Which results are given for `O=C(Cc1ccccc1)Nc1nnc(CCSCCc2nnc(NC(=O)Cc3ccccc3)s2)s1` [BPTES]?
sensitivity to BPTES (MDA-MB-231 cells; MDA-MB-231 cells expressing empty vector or GAC-WT): retained significant sensitivity; sensitivity to BPTES (MDA-MB-231 cells; MDA-MB-231 cells with stable overexpression of the GAC-BR mutant): rendered resistant; Max Inh @ 10 uM (%) (NCI-H1563; NCI-H1563, 10 uM): 8%; Mu/max @10 uM (NCI-H1563; NCI-H1563, 10 uM): 0.92; μ/μmax @10 uM (NCI-H1563; NCI-H1563, 10 uM): 0.92; μ/μmax (NCI-H1563; NCI-H1563 cell line): 0.92; μ/μmax (NCI-H1618): 0.53; sensitivity to BPTES (NCI-H838; NCI-H838): moderate level of sensitivity; Max Inh @ 10 uM (%) (NCI-H838; NCI-H838, 10 uM): 37%; Mu/max @10 uM (NCI-H838; NCI-H838, 10 uM): 0.66; μ/μmax @10 uM (NCI-H838; NCI-H838, 10 uM): 0.66; μ/μmax (NCI-H838; NCI-H838 cell line): 0.66; μ/μmax (NCI-H748): 0.76; μ/μmax (NCI-H1573): 0.92; Max Inh @ 10 uM (%) (NCI-H661; NCI-H661, 10 uM): 73%; Mu/max @10 uM (NCI-H661; NCI-H661, 10 uM): 0.43; μ/μmax @10 uM (NCI-H661; NCI-H661, 10 uM): 0.43; μ/μmax (NCI-H661; NCI-H661 cell line): 0.43; μ/μmax (NCI-H446): 0.84; μ/μmax (NCI-H2405): 0.92; μ/μmax (H2228): 0.69; μ/μmax (NCI-H209): 0.64; μ/μmax (NCI-H1694): 1.00; μ/μmax (NCI-H2107): 0.79; Max Inh @ 10 uM (%) (NCI-H1437; NCI-H1437, 10 uM): 27%; Mu/max @10 uM (NCI-H1437; NCI-H1437, 10 uM): 0.81; μ/μmax @10 uM (NCI-H1437; NCI-H1437, 10 uM): 0.81; μ/μmax (NCI-H1437; NCI-H1437 cell line): 0.81; Max Inh @ 10 uM (%) (NCI-H1975; NCI-H1975, 10 uM): 18%; Mu/max @10 uM (NCI-H1975; NCI-H1975, 10 uM): 0.75; μ/μmax @10 uM (NCI-H1975; NCI-H1975, 10 uM): 0.75; μ/μmax (NCI-H1975; NCI-H1975 cell line): 0.75; Max Inh @ 10 uM (%) (NCI-H2122; NCI-H2122, 10 uM): 58%; Mu/max @10 uM (NCI-H2122; NCI-H2122, 10 uM): 0.56; μ/μmax @10 uM (NCI-H2122; NCI-H2122, 10 uM): 0.56; μ/μmax (NCI-H2122; NCI-H2122 cell line): 0.56; Max Inh @ 10 uM (%) (NCI-H1568; NCI-H1568, 10 uM): 50%; Mu/max @10 uM (NCI-H1568; NCI-H1568, 10 uM): 0.25; μ/μmax @10 uM (NCI-H1568; NCI-H1568, 10 uM): 0.25; μ/μmax (NCI-H1568; NCI-H1568 cell line): 0.25; μ/μmax (NCI-H1355): 0.78; sensitivity to BPTES (NCI-H358; NCI-H358): relatively BPTES insensitive; Max Inh @ 10 uM (%) (NCI-H358; NCI-H358, 10 uM): 27%; Mu/max @10 uM (NCI-H358; NCI-H358, 10 uM): 0.66; μ/μmax @10 uM (NCI-H358; NCI-H358, 10 uM): 0.66; μ/μmax (NCI-H358; NCI-H358 cell line): 0.66; Max Inh @ 10 uM (%) (NCI-H520; NCI-H520, 10 uM): 14%; Mu/max @10 uM (NCI-H520; NCI-H520, 10 uM): 0.79; μ/μmax @10 uM (NCI-H520; NCI-H520, 10 uM): 0.79; μ/μmax (NCI-H520; NCI-H520 cell line): 0.79; μ/μmax (NCI-H1436): 0.68; μ/μmax (NCI-H2347): 0.90; μ/μmax (NCI-H1623): 0.79; Max Inh @ 10 uM (%) (NCI-H1395; NCI-H1395, 10 uM): 16%; Mu/max @10 uM (NCI-H1395; NCI-H1395, 10 uM): 0.61; μ/μmax @10 uM (NCI-H1395; NCI-H1395, 10 uM): 0.61; μ/μmax (NCI-H1395; NCI-H1395 cell line): 0.61; Max Inh @ 10 uM (%) (HCC15; HCC15, 10 uM): 40%; Mu/max @10 uM (HCC15; HCC15, 10 uM): 0.64; μ/μmax @10 uM (HCC15; HCC15, 10 uM): 0.64; μ/μmax (HCC15; HCC15 cell line): 0.64; μ/μmax (DMS-153): 0.58; μ/μmax (NCI-H1048): 0.94; μ/μmax (NCI-H1373): 0.79; μ/μmax (NCI-H774): 0.54
